Experimental findings from patent US10913738B2 (BRISTOL-MYERS SQUIBB COMPANY, priority 2017, dated 2021) are described below.

pIC50: −log10 of the molar value. Where two headings read alike, the source gives them in different places.

For test [1], the target named is T1, His-GST-TVMV-hRIPK1(1-324) (Homo sapiens, UniProt Q13546).
T1 construct: The coding region of human RIPK1(1-324) flanked by NdeI site at 5′ end; made in house; host or cells: Spodoptera frugiperda (Sf9) insect cells, baculovirus
T1 sequence (Q13546 1-324): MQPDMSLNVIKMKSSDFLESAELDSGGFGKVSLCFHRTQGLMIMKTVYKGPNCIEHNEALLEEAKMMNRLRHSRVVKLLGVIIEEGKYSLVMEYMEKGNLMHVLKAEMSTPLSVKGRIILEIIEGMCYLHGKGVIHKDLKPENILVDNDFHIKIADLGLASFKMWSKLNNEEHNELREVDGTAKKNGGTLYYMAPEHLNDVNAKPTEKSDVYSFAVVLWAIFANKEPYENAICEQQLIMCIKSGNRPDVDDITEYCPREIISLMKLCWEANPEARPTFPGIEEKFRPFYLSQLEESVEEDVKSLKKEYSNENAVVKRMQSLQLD
The test is described as follows: RIPK1 HTRF Binding Assay. (In TR-FRET formats the signal depends on donor and acceptor labels being close together.)

For test [2], the system named is MLKL phosphorylation in HT29-L23 human colorectal adenocarcinoma cells. Nature of the test: MLKL Phosphorylation High-Content Assay. The test is classed as cell-based. As to conditions: Homo sapiens. The gist of the method:
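Cells incubated six hours at 37° C., then phospho-MLKL (S358) immunostained overnight at 4° C. and imaged by high-content microscopy. Phosphorylation quantified as mean circ-ring average intensity ratio; IC50 and Ymax from 4-parameter logistic fits.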

The mark [3] stands for this setting: x marks IC50 class <20 nM, read-out: RIPK1 HTRF binding <20 nM.
Where [4] appears, read: x marks IC50 class <20 nM, read-out: pMLKL cell activity <20 nM.
Where [5] appears, read: x marks IC50 class 20-200 nM, read-out: pMLKL cell activity 20-200 nM.
[6] abbreviates: x marks IC50 class 20-200 nM, read-out: RIPK1 HTRF binding 20-200 nM.
The mark [7] stands for this setting: x marks IC50 class >200 nM, read-out: pMLKL cell activity >200 nM.
Setting [8] is: x marks IC50 class >200 nM, read-out: RIPK1 HTRF binding >200 nM.

In the case of `COc1ncc(-c2ccn3nc(N)nc3c2)cc1C(=O)NCc1c(OCC2CC2)ccc(F)c1F` [Example 338, 5-(2-amino-[1,2,4]triazolo[1,5-a]pyridin-7-yl)-N-(6-(cyclopropylmethoxy)-2,3-difluorobenzyl)-2-methoxynicotinamide], the pIC50 in test [1] (setting [3]) and in test [2] (setting [4]) was greater than 7.70 throughout.

As to `[2H]C([2H])(NC(=O)c1cc(-c2ccn3nc(N)nc3c2)cnc1OC)c1cc(F)cc(F)c1OCC1CC1` [Example 88, 5-{2-amino-[1,2,4]triazolo[1,5-a]pyridin-7-yl}-N-{[2-(cyclopropylmethoxy)-3,5-difluorophenyl](deutero)methyl}-2-methoxypyridine-3-carboxamide], the pIC50 in test [1] (setting [3]) and in test [2] (setting [4]) was greater than 7.70 in each case.

In the case of `COc1ncc(-c2ccn3nc(N)nc3c2)cc1C(=O)NCc1c(F)cccc1OC1CCCC1` [Example 52, 5-{2-Amino-[1,2,4]triazolo[1,5-a]pyridin-7-yl}-N-{[2-(cyclopentyloxy)-6-fluorophenyl]methyl}-2-methoxypyridine-3-carboxamide], the pIC50 in test [1] (setting [3]) and in test [2] (setting [4]) was greater than 7.70 throughout.

With `COc1ncc(C(=O)NCc2ccccc2OCC2CC2)cc1-c1ccn2nc(N)nc2c1` [Example 28, 5-{2-Amino-[1,2,4]triazolo[1,5-a]pyridin-7-yl}-N-{[2-(cyclopropylmethoxy)phenyl]methyl}-6-methoxypyridine-3-carboxamide], the pIC50 in test [1] (setting [3]) was greater than 7.70; in test [2] (setting [5]) it was 6.70 to 7.70.

As for `COc1ncc(-c2ccn3nc(N)nc3c2)cc1C(=O)NCc1ccccc1OCC(F)(F)F` [Example 343, 5-(2-amino-[1,2,4]triazolo[1,5-a]pyridin-7-yl)-2-methoxy-N-(2-(2,2,2-trifluoroethoxy)benzyl)nicotinamide], the pIC50 in test [1] (setting [3]) is greater than 7.70; in test [2] (setting [5]), 6.70 to 7.70.

Turning to `COc1ncc(-c2ccn3nc(N)nc3c2)cc1C(=O)NCc1cc(F)cc(F)c1O[C@@H]1CCOC1` [Example 363, (R)-5-(2-amino-[1,2,4]triazolo[1,5-a]pyridin-7-yl)-N-(3,5-difluoro-2-((tetrahydrofuran-3-yl)oxy)benzyl)-2-methoxynicotinamide], the pIC50 was greater than 7.70 in test [1] (setting [3]) and 6.70 to 7.70 in test [2] (setting [5]).

`COc1ncc(-c2ccn3nc(N)nc3c2)cc1C(=O)NCc1ccccc1OC(F)(F)C(F)F` [Example 150, 5-{2-amino-[1,2,4]triazolo[1,5-a]pyridin-7-yl}-2-methoxy-N-{[2-(1,1,2,2-tetrafluoroethoxy)phenyl]methyl}pyridine-3-carboxamide]: the pIC50 is greater than 7.70 in test [1] (setting [3]) and 6.70 to 7.70 in test [2] (setting [5]).

Regarding `Cc1ncc(-c2ccn3nc(N)nc3c2)cc1C(=O)NC(C)c1cccc(OC(F)(F)F)c1` (centres unmarked) [Example 234, 5-{2-amino-[1,2,4]triazolo[1,5-a]pyridin-7-yl}-2-methyl-N-{1-[3-(trifluoromethoxy)phenyl]ethyl}pyridine-3-carboxamide], the pIC50 was 6.70 to 7.70 in test [1] (setting [6]) and less than 6.70 in test [2] (setting [7]).

Regarding `COc1ncc(C(=O)NCc2c(F)cccc2OCC2CC2)cc1-c1ccn2nc(N)nc2c1` [Example 26, 5-{2-Amino-[1,2,4]triazolo[1,5-a]pyridin-7-yl}-N-{[2-(cyclopropylmethoxy)-6-fluorophenyl]methyl}-6-methoxypyridine-3-carboxamide], the pIC50 is greater than 7.70 in test [1] (setting [3]) and 6.70 to 7.70 in test [2] (setting [5]).

Turning to `CCOc1ncc(-c2ccn3nc(N)nc3c2)cc1C(=O)Nc1cnn(Cc2ccccc2)c1` [Example 279, 5-{2-amino-[1,2,4]triazolo[1,5-a]pyridin-7-yl}-N-(1-benzyl-1H-pyrazol-4-yl)-2-ethoxypyridine-3-carboxamide], the pIC50 in test [1] (setting [6]) and in test [2] (setting [5]) was 6.70 to 7.70 in each case.

`COc1nc(C)c(-c2ccn3nc(N)nc3c2)cc1C(=O)NC(C)c1ccccc1OC(F)(F)F` (centres unmarked) [Example 205, 5-{2-amino-[1,2,4]triazolo[1,5-a]pyridin-7-yl}-2-methoxy-6-methyl-N-{1-[2-(trifluoromethoxy)phenyl]ethyl}pyridine-3-carboxamide]: the pIC50 in test [1] (setting [3]) and in test [2] (setting [4]) was greater than 7.70 throughout.

As to `Cc1ncc(-c2ccn3nc(N)nc3c2)cc1C(=O)NCC(C)(O)Cc1ccc(F)cc1` (centres unmarked) [Example 421, 5-(2-amino-[1,2,4]triazolo[1,5-a]pyridin-7-yl)-N-(3-(4-fluorophenyl)-2-hydroxy-2-methylpropyl)-2-methylnicotinamide], the results for the pIC50 in test [1] (setting [6]) and in test [2] (setting [7]) were 6.70 to 7.70 and less than 6.70, respectively.

In the case of `Cc1cnc(-c2ccn3nc(N)nc3c2)cc1C(=O)NCC[C@@H](O)c1ccc(Cl)cc1` [Example 395, (R)-2-(2-amino-[1,2,4]triazolo[1,5-a]pyridin-7-yl)-N-(3-(4-chlorophenyl)-3-hydroxypropyl)-5-methylisonicotinamide], the figures for the pIC50 in test [1] (setting [3]) and in test [2] (setting [5]) were greater than 7.70 and 6.70 to 7.70, respectively.

On to `COc1nc(C)c(-c2ccn3nc(N)nc3c2)cc1C(=O)NCc1cc(F)cc(F)c1OCC1CC1` [Example 9, 5-{2-Amino-[1,2,4]triazolo[1,5-a]pyridin-7-yl}-N-{[2-(cyclopropylmethoxy)-3,5-difluorophenyl]methyl}-2-methoxy-6-methylpyridine-3-carboxamide], for which the pIC50 in test [1] (setting [3]) and in test [2] (setting [4]) was greater than 7.70 throughout.

With `[2H]C([2H])(NC(=O)c1cc(-c2ccn3nc(N)nc3c2)c(C)nc1OC)c1cccc(C(F)(F)F)c1` [Example 335, 5-(2-amino-[1,2,4]triazolo[1,5-a]pyridin-7-yl)-2-methoxy-6-methyl-N-((3-(trifluoromethyl)phenyl)methyl-d2)nicotinamide], the pIC50 in test [1] (setting [6]) and in test [2] (setting [5]) was 6.70 to 7.70 in each case.

Take `CCc1ncc(-c2ccn3nc(N)nc3c2)cc1C(=O)N[C@@H](C)c1cc(OC(F)(F)F)ccc1F` [Example 321, (S)-5-(2-amino-[1,2,4]triazolo[1,5-a]pyridin-7-yl)-2-ethyl-N-(1-(2-fluoro-5-(trifluoromethoxy)phenyl)ethyl)nicotinamide]: the pIC50 in test [1] (setting [6]) and in test [2] (setting [5]) was 6.70 to 7.70 in each case.

Turning to `COc1ncc(-c2ccn3nc(N)nc3c2)cc1C(=O)NCc1cc(F)ccc1OCC(F)(F)F` [Example 339, 5-(2-amino-[1,2,4]triazolo[1,5-a]pyridin-7-yl)-N-(5-fluoro-2-(2,2,2-trifluoroethoxy)benzyl)-2-methoxynicotinamide], the pIC50 in test [1] (setting [3]) and in test [2] (setting [4]) was greater than 7.70 each time.

In the case of `[2H]C([2H])(NC(=O)c1cc(-c2ccn3nc(N)nc3c2)c(C)nc1C)c1cc(OC(F)(F)F)ccc1F` [Example 191], the pIC50 in test [1] (setting [3]) and in test [2] (setting [4]) was greater than 7.70 each time.

For the compound `COc1ncc(-c2ccn3nc(N)nc3c2)cc1C(=O)NCc1c[nH]nc1-c1ccccc1` [Example 152, 5-{2-amino-[1,2,4]triazolo[1,5-a]pyridin-7-yl}-2-methoxy-N-[(3-phenyl-1H-pyrazol-4-yl)methyl]pyridine-3-carboxamide], the pIC50 in test [1] (setting [6]) and in test [2] (setting [5]) was 6.70 to 7.70 each time.

With `Cc1ncc(-c2ccn3nc(N)nc3c2)cc1C(=O)N1CCCC(C(O)c2ccc(F)cc2)C1` (centres unmarked) [Example 423, (5-(2-amino-[1,2,4]triazolo[1,5-a]pyridin-7-yl)-2-methylpyridin-3-yl)(3-((4-fluorophenyl)(hydroxy)methyl)piperidin-1-yl)methanone], the pIC50 in test [1] (setting [8]) and in test [2] (setting [7]) was less than 6.70 each time.

As for `COc1ccccc1CNC(=O)c1cc(-c2ccn3nc(N)nc3c2)cnc1OC` [Example 154, 5-{2-amino-[1,2,4]triazolo[1,5-a]pyridin-7-yl}-2-methoxy-N-[(2-methoxyphenyl)methyl]pyridine-3-carboxamide], the pIC50 in test [1] (setting [8]) and in test [2] (setting [7]) was less than 6.70 each time.

With `C[C@H](NC(=O)c1cnc(Cl)c(-c2ccn3nc(N)nc3c2)c1)c1cc(OC(F)(F)F)ccc1F` [Example 371, (S)-5-(2-amino-[1,2,4]triazolo[1,5-a]pyridin-7-yl)-6-chloro-N-(1-(2-fluoro-5-(trifluoromethoxy)phenyl)ethyl)nicotinamide], the pIC50 was greater than 7.70 in test [1] (setting [3]) and 6.70 to 7.70 in test [2] (setting [5]).

`Nc1nc2cc(-c3cc(C(=O)NCc4cc(OC(F)(F)F)ccc4F)cnc3Cl)ccn2n1` [Example 368, 5-(2-Amino-[1,2,4]triazolo[1,5-a]pyridin-7-yl)-6-chloro-N-(2-fluoro-5-(trifluoromethoxy)benzyl)nicotinamide]: the figures for the pIC50 in test [1] (setting [3]) and in test [2] (setting [5]) were greater than 7.70 and 6.70 to 7.70, respectively.

As to `Cc1ncc(C(=O)NCc2ncccc2OC2CCCC2)cc1-c1ccn2nc(N)nc2c1` [Example 17, 5-{2-Amino-[1,2,4]triazolo[1,5-a]pyridin-7-yl}-N-{[3-(cyclopentyloxy)pyridin-2-yl]methyl}-6-methylpyridine-3-carboxamide], the pIC50 in test [1] (setting [3]) is greater than 7.70; in test [2] (setting [5]) it was 6.70 to 7.70.

Turning to `COc1nc(C)c(-c2ccn3nc(N)nc3c2)cc1C(=O)NCc1cc(F)cc(C(F)(F)F)c1` [Example 196, 5-{2-amino-[1,2,4]triazolo[1,5-a]pyridin-7-yl}-N-{[3-fluoro-5-(trifluoromethyl)phenyl]methyl}-2-methoxy-6-methylpyridine-3-carboxamide], the pIC50 was 6.70 to 7.70 in test [1] (setting [6]) and less than 6.70 in test [2] (setting [7]).
